{
  "source": "patent US20240287463A1",
  "about": "“INDUCIBLE TISSUE CONSTRUCTS AND USES THEREOF” (Massachusetts Institute of Technology, priority 2020, published 2024)",
  "key": {"[1]": {"tested_on": "iCasp9-HDFs", "test": "apoptosis of 2D monolayer fibroblasts (cellular ATP, cell density)", "format": "cell-based, human", "procedure": "To be able to remove fibroblasts on demand from the developing co-culture, the synthetically engineered, inducibly activated caspase-9 (iCasp9) outlined in the examples above was used. Using this inducible transgene, iCasp9-HDFs were established and characterized for effectiveness. iCasp9-HDFs were seeded on tissue culture plastic, and allowed to form a confluent monolayer before adding different concentrations of CID."}, "[2]": {"tested_on": "iCasp9-GFP J2 population", "test": "fibroblast removal from 2D micropatterned co-cultures (MPCC)", "format": "cell-based", "details": "50 nM CID", "description": "Specifically, MPCC were fabricated as described previously (S. R. Khetani and S. N. Bhatia (2005) Nat. Biotechnol 26, 120; S. March et al. (2015) Nat. Protoc. 10, 2007). Briefly, collagen was adsorbed in each well of a 96 well plate (glass bottom), and then patterned using an elastomeric polydimethysiloxane mold and oxygen plasma gas ablation. Human hepatocytes were thawed and seeded (70 k/well) on the collagen islands (500 μm with 1,200 μm center-to-center spacing). Adhered hepatocytes (˜10 k/well) were allowed to spread overnight before fibroblasts were seeded for co-culture (7 k/well). Supernatant was collected from cultures every other day and stored at −20° C. Human albumin was quantified using an enzyme-linked immunosorbent assay using a sheep anti-rat albumin antibody (ELISA) (Bethyl Laboratories) and 3,3′,5,5′-tetramethylbenzidine (TMB, Thermo Fisher). Urea concentration was measured using a colorimetric (diacetylmonoxime) assay with acid and heat (Stanbio Labs). CYP3A4 activity was assessed with the luminogenic P450-GloTM CYP450 assay kit (Promega) for nonlytic assays using cultured cells. Cultures were pre-treated with 2 μM rifampin or 1:1,000 DMSO vehicle control prepared in hepatocyte maintenance media for 72 hours (daily replenishment) where indicated. […]"}, "[3]": {"tested_on": "iCasp9-GFP J2s", "test": "fibroblast deletion from 3D spheroid-laden hydrogels", "format": "cell-based", "description": "Previous work identified that phenotypic stability and longevity of primary hepatocytes cultured as 3D microtissues were transiently supported by pre-aggregation to increase homotypic cell-cell interactions, and were further enhanced upon inclusion of J2 fibroblasts (C. Y. Li et al. (2014) Tissue Eng. Part A 20, 2200). Thus, iCasp9-GFP J2 fibroblasts were incorporated into these 3D hepatic ensembles, which were fabricated by plating primary human hepatocytes and fibroblasts in microwells in order to facilitate physical cell-cell contacts, as previously described (K. Stevens et al. (2013) Nat. Commun. 4, 1847; K. R. Stevens et al. (2017) Sci. Transl. Med. 9, eaaah5505). […] Hepatic spheroids (about 150 hepatocytes per spheroid, ˜100 μm diameter) were imaged and analyzed to quantify the extent of spheroid compaction. […] Resulting morphologies were traced and measured for circularity. […]\nTo probe the dependence of hepatocyte phenotypic stability on fibroblast co-culture in 3D, fibroblasts were deleted from spheroid-laden hydrogel cultures using CAMEO after 1 day of hepatocyte-fibroblast co-culture. Fibroblasts were robustly removed from 3D co-cultures as described in the above Examples, and detected by immunofluorescence imaging (FIG. 3I). […]"}},
  "data": [
    {"smiles": "CC[C@H](C(=O)N1CCCC[C@H]1C(=O)O[C@H](CCc1ccc(OC)c(OC)c1)c1cccc(OCC(=O)NCC(CNC(=O)COc2cccc([C@@H](CCc3ccc(OC)c(OC)c3)OC(=O)[C@@H]3CCCCN3C(=O)[C@@H](CC)c3cc(OC)c(OC)c(OC)c3)c2)CN(C)C)c1)c1cc(OC)c(OC)c(OC)c1", "note": "[CID, AP20187]", "values": [
      {"measurement": "time within which cellular ATP levels dropped precipitously", "setting": "[1]; 5 nM CID", "value": "2 to 4", "unit": "h"},
      {"measurement": "reduction of iCasp9-HDFs in culture compared to vehicle control", "setting": "[1]; 10 nM CID, overnight", "value": "~96", "unit": "%"},
      {"measurement": "rapidity of ATP loss", "setting": "[1]; 5, 50, 500 nM CID", "value": "increased with increasing CID concentration"},
      {"measurement": "removal of fibroblasts from MPCC", "setting": "[2]", "value": "selective removal of the iCasp9-GFP J2 population"},
      {"measurement": "iCasp9-GFP staining", "setting": "[3]; 50 nM CID at day 1, imaged starting at day 2", "value": "negligible"},
      {"measurement": "deletion of iCasp9-GFP J2s throughout the hydrogel", "setting": "[3]; spheroid-laden hydrogel cultures, data not shown", "value": "robust and specific deletion"}
    ]}
  ]
}
